# Test results reported in patent publication US20260240847A1, “COMPOUNDS WITH ANTI-TUMOR ACTIVITY AGAINST CANCER CELLS BEARING TYROSINE KINASE INHIBITOR RESISTANT EGFR MUTATIONS” (BOARD OF REGENTS, THE UNIVERSITY OF TEXAS SYSTEM, priority 2019, published 2026).
# What was measured:
# [1] = target: WT EGFR (Homo sapiens, UniProt P00533); details: read-out: IC50 values; Ba/F3 cells expressing WT EGFR (+10 ng/ml EGF), 72 hours
# Procedure: (§1) Cell viability was determined by the Cell Titer Glo assay.
# (§2) Briefly, stable Ba/F3 cell lines were generated by retroviral transduction of Ba/F3 cell line for 12 hours. […] Three days after transduction, 2 μg/ml puromycin (Invitrogen) was added to the RPMI media. Cell lines were then grown in the absence of IL-3 for two weeks and cell viability was assessed every three days using the Cell Titer Glo assay (Progema).
# (§3) Briefly, 2000-3000 cells per well were plated in 384-well plates (Greiner Bio-One) in technical triplicate. Cells were treated with seven different concentrations of tyrosine kinase inhibitors or vehicle alone at a final volume of 40 μL per well. After 3 days, 11 μL of Cell Titer Glo was added to each well. Plates were shaken for 15 minutes, and bioluminescence was determined using a FLUOstar OPTIMA multi-mode micro-plate reader (BMG LABTECH). Bioluminescence values were normalized to DMSO treated cells, and normalized values were plotted in GraphPad Prism using non-linear regression fit to normalized data with a variable slope.
# [2] = target: EGFR L858R T790M L792H (Homo sapiens, UniProt P00533, L792H/L858R/T790M); assay: Ba/F3 cell viability, Cell Titer Glo; details: read-out: IC50 Values; Ba/F3 cells expressing EGFR L858R T790M L792H, 72 hours
# Procedure: as §1, §2, §3
# [3] = target: EGFR L858R T790M/C797S (Homo sapiens, UniProt P00533, C797S/L858R/T790M); assay: Ba/F3 cell viability, Cell Titer Glo; details: read-out: IC50 Values; Ba/F3 cells expressing EGFR L858R T790M/C797S, 72 hours
# Procedure: as §1, §2, §3
# [4] = target: EGFR Ex19del T790M C797S (Homo sapiens, UniProt P00533, C797S/DEL746-750/T790M); assay: Ba/F3 cell viability, Cell Titer Glo; details: read-out: IC50 Values; Ba/F3 cells expressing EGFR Ex19del T790M C797S, 72 hours
# Procedure: as §1, §2, §3
# [5] = target: EGFR L858R/T790M/L718Q (Homo sapiens, UniProt P00533, L718Q/L858R/T790M); assay: Ba/F3 cell viability, Cell Titer Glo; details: read-out: IC50 Values; Ba/F3 cells expressing EGFR L858R/T790M/L718Q, 72 hours
# Chain of EGFR L858R/T790M/L718Q (P00533 25-1210 L718Q/T790M/L858R): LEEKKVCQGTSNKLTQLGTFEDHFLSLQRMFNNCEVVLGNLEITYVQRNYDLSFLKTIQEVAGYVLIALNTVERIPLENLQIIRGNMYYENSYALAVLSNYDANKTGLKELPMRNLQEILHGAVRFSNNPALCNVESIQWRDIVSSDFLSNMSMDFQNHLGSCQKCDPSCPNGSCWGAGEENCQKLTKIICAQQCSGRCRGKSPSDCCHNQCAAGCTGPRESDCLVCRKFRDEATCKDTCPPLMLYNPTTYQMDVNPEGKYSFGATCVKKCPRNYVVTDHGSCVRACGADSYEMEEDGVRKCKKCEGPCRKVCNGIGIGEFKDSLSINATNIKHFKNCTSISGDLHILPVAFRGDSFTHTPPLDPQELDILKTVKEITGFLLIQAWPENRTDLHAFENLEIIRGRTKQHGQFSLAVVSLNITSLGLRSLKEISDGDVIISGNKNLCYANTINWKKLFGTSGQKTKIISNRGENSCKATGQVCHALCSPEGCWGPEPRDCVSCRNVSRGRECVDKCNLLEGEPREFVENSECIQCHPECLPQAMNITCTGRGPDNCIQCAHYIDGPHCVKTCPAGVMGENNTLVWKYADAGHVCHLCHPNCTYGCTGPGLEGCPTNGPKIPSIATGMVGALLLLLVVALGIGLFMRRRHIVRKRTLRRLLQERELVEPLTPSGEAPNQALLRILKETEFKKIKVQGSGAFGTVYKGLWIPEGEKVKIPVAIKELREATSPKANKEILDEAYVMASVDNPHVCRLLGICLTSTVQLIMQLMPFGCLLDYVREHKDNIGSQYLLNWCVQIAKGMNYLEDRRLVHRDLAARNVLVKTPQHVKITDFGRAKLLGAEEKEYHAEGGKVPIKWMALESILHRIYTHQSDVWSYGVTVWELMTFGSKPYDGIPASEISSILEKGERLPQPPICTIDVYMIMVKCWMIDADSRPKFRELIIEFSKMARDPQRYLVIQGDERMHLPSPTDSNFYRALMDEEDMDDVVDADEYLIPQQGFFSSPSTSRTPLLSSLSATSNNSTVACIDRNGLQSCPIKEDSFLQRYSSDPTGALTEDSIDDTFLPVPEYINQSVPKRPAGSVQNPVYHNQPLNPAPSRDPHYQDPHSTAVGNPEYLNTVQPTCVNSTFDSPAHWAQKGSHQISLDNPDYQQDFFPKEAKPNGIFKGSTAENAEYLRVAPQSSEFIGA
# Procedure: as §1, §2, §3
# [6] = target: EGFR L718Q T790M (Homo sapiens, UniProt P00533, L718Q/T790M); assay: Ba/F3 cell viability, Cell Titer Glo; details: read-out: IC50 Values; Ba/F3 cells expressing EGFR L718Q T790M, 72 hours
# Procedure: as §1, §2, §3
# [7] = target: EGFR L858R T790M L718V (Homo sapiens, UniProt P00533, L718V/L858R/T790M); assay: Ba/F3 cell viability, Cell Titer Glo; details: read-out: IC50 Values; Ba/F3 cells expressing EGFR L858R T790M L718V, 72 hours
# Procedure: as §1, §2, §3
# [8] = target: EGFR Ex19delT790M L718V (Homo sapiens, UniProt P00533, DEL746-750/L718V/T790M); assay: Ba/F3 cell viability, Cell Titer Glo; details: read-out: IC50 Values; Ba/F3 cells expressing EGFR Ex19delT790M L718V, 72 hours
# Procedure: as §1, §2, §3
# [9] = target: EGFR Ex19del/T790M/L792H (Homo sapiens, UniProt P00533, DEL746-750/L792H/T790M); assay: Ba/F3 cell viability, Cell Titer Glo; details: read-out: IC50 Values; Ba/F3 cells expressing EGFR Ex19del/T790M/L792H, 72 hours
# Procedure: as §1, §2, §3
# [10] = target: EGFR G724S T790M (Homo sapiens, UniProt P00533, G724S/T790M); assay: Ba/F3 cell viability, Cell Titer Glo; details: read-out: IC50 Values; Ba/F3 cells expressing EGFR G724S T790M, 72 hours
# Chain of EGFR G724S T790M (P00533 25-1210 G724S/T790M): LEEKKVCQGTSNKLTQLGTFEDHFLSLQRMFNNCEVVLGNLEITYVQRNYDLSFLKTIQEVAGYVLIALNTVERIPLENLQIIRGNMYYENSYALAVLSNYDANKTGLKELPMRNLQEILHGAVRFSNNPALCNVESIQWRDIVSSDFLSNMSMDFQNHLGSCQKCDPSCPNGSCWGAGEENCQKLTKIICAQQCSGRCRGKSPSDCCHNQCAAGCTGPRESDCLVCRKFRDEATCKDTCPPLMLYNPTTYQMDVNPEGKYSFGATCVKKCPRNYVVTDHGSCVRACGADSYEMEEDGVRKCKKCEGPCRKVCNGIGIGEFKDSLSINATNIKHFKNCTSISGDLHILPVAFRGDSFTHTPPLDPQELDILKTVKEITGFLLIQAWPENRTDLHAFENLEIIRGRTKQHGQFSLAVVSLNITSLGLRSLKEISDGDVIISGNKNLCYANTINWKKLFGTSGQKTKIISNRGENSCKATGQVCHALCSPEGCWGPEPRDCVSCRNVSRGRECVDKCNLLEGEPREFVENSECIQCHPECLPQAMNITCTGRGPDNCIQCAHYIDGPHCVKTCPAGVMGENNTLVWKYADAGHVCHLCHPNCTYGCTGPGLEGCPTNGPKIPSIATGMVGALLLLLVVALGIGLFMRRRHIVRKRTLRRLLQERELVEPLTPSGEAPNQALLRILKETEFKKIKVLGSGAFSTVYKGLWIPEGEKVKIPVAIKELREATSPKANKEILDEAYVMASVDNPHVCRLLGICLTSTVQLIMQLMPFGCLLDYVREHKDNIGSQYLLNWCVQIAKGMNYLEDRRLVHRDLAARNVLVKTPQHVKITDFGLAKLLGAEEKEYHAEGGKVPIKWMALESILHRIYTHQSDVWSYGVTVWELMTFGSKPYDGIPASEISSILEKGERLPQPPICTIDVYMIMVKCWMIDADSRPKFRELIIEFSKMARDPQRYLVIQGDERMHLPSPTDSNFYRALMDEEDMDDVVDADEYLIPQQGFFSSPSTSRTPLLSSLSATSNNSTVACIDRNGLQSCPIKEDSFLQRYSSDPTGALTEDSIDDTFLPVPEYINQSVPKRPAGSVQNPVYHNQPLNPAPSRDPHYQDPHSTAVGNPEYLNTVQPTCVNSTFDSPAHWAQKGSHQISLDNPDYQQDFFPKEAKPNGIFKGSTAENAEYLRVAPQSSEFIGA
# Procedure: as §1, §2, §3
# [11] = target: EGFR T790M (Homo sapiens, UniProt P00533, T790M); assay: Ba/F3 cell viability, Cell Titer Glo; details: read-out: IC50 Values; Ba/F3 cells expressing EGFR T790M, 72 hours
# Procedure: as §1, §2, §3
# [12] = target: EGFR Ex19del/T790M/G724S (Homo sapiens, UniProt P00533, DEL746-750/G724S/T790M); assay: Ba/F3 cell viability, Cell Titer Glo; details: read-out: IC50 Values; Ba/F3 cells expressing EGFR Ex19del/T790M/G724S, 72 hours
# Procedure: as §1, §3
# [13] = target: EGFR L858R T790M V843I (Homo sapiens, UniProt P00533, L858R/T790M/V843I); assay: Ba/F3 cell viability, Cell Titer Glo; details: read-out: IC50 Values; Ba/F3 cells expressing EGFR L858R T790M V843I, 72 hours
# Procedure: as §1, §2, §3
# [14] = target: EGFR L858R/T790M (Homo sapiens, UniProt P00533, L858R/T790M); assay: Ba/F3 cell viability, Cell Titer Glo; details: read-out: IC50 Values; Ba/F3 cells expressing EGFR L858R/T790M, 72 hours
# Procedure: as §1, §2, §3
# [15] = target: EGFR S768I/T790M (Homo sapiens, UniProt P00533, S768I/T790M); assay: Ba/F3 cell viability, Cell Titer Glo; details: read-out: IC50 Values; Ba/F3 cells expressing EGFR S768I/T790M, 72 hours
# Chain of EGFR S768I/T790M (P00533 25-1210 S768I/T790M): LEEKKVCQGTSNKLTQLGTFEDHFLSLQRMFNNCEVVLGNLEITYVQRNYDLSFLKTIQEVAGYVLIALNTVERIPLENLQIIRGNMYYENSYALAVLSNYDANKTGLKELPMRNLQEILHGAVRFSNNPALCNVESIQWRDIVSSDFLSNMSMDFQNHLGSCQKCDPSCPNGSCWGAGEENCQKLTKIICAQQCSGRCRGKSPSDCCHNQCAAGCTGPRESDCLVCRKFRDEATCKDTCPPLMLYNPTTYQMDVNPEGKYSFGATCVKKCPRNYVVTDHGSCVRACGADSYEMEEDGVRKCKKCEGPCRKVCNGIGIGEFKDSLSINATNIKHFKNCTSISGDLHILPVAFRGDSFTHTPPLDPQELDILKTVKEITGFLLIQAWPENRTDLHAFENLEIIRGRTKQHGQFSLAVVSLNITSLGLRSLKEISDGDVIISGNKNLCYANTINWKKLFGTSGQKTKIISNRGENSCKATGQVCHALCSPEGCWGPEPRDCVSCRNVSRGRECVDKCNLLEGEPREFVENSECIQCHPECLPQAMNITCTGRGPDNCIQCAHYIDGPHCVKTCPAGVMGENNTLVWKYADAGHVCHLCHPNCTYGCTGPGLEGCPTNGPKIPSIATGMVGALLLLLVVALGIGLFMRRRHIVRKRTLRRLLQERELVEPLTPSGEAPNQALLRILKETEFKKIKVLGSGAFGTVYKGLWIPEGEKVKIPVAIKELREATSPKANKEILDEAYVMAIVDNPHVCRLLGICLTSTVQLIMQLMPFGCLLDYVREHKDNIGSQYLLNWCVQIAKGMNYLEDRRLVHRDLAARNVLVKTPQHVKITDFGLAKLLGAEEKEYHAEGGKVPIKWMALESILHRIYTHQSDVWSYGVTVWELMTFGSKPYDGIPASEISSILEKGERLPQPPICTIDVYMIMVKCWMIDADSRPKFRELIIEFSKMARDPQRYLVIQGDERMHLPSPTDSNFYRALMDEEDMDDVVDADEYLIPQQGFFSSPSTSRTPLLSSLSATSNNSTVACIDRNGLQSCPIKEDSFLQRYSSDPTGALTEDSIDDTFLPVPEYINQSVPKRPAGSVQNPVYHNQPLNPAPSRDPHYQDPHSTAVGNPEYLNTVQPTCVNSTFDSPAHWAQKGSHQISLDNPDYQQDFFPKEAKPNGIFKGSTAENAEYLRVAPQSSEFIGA
# Procedure: as §1, §3
# [16] = target: EGFR G719A T790M (Homo sapiens, UniProt P00533, G719A/T790M); assay: Ba/F3 cell viability, Cell Titer Glo; details: read-out: IC50 Values; Ba/F3 cells expressing EGFR G719A T790M, 72 hours
# Chain of EGFR G719A T790M (P00533 25-1210 G719A/T790M): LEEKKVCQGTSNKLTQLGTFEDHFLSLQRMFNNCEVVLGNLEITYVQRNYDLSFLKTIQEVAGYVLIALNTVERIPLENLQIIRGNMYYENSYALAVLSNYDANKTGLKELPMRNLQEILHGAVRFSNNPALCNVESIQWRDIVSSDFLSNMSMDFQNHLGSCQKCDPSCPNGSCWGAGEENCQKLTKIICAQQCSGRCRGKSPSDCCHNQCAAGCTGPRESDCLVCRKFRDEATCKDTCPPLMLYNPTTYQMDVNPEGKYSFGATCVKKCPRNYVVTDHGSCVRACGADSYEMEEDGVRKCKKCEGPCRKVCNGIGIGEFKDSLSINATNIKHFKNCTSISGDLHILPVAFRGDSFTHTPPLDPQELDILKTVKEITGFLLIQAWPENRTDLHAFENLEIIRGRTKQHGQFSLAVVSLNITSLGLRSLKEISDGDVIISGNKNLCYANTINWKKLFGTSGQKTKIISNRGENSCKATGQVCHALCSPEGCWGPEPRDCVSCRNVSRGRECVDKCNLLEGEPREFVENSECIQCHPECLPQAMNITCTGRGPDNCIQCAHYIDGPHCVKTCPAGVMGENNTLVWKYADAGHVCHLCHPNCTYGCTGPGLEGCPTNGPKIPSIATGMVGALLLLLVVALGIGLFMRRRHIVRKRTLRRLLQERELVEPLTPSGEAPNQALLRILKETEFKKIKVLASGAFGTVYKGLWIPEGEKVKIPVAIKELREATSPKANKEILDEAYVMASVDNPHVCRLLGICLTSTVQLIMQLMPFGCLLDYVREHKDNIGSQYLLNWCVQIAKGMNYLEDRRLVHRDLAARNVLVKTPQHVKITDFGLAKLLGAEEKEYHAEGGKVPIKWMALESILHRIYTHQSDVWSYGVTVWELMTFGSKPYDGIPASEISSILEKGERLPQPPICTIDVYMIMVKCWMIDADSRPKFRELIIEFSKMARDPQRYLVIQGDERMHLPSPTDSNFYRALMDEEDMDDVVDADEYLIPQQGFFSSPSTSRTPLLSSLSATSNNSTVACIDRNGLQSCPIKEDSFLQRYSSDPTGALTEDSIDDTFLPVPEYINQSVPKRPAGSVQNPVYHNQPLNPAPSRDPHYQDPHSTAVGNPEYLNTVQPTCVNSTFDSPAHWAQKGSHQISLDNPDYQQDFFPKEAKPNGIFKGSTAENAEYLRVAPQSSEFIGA
# Procedure: as §1, §3
# [17] = target: EGFR Ex19delT790M (Homo sapiens, UniProt P00533, DEL746-750/T790M); assay: Ba/F3 cell viability, Cell Titer Glo; details: read-out: IC50 Values; Ba/F3 cells expressing EGFR Ex19delT790M, 72 hours
# Procedure: as §1, §2, §3
smiles,measurement,setting,value
COc1cc(N2CCC(N)CC2)ccc1Nc1ncc(Cl)c(-c2c[nH]c3ccccc23)n1 [AZD3463],IC50,[1],1630 nM
same,IC50,[2],1550 nM
same,IC50,[3],1270 nM
same,IC50,[4],1440 nM
same,IC50,[5],1120 nM
same,IC50,[6],1140 nM
same,IC50,[7],662 nM
same,IC50,[8],1340 nM
same,IC50,[9],1090 nM
same,IC50,[10],695 nM
same,IC50,[11],1270 nM
same,IC50,[12],1610 nM
same,IC50,[13],768 nM
same,IC50,[14],2400 nM
same,IC50,[15],1730 nM
same,IC50,[16],1340 nM
same,IC50,[17],255 nM
